Measurements as given in ChEMBL document CHEMBL5346892, “Design and synthesis of benzochromene derivatives as AcrB inhibitors for the reversal of bacterial multidrug resistance” (Eur J Med Chem, 2023).

Experiments:
Type in all cases: functional
Escherichia coli [1] = assay: Synergistic antibacterial activity against wild type Escherichia coli BW25113 assessed as minocycline MIC at 1 microg/ml incubated for 18 hrs in presence of colistin by broth dilution assay; settings: dose 1 µg/ml
Escherichia coli [2] = assay: Synergistic antibacterial activity against wild type Escherichia coli BW25113 assessed as minocycline MIC at 2 microg/ml incubated for 18 hrs in presence of colistin by broth dilution assay; settings: dose 2 µg/ml
Escherichia coli [3] = assay: Synergistic antibacterial activity against wild type Escherichia coli BW25113 assessed as erythromycin MIC at 2 microg/ml incubated for 18 hrs in presence of colistin by broth dilution assay; settings: dose 2 µg/ml

CC1(C)CCc2c(C(=O)N3CCOCC3)cc3c(OCCN4CCN(c5ccccc5)CC4)cccc3c2O1
MIC (Escherichia coli [1]): 0.5 µg/mL
MIC (Escherichia coli [2]): 0.5 µg/mL
MIC (Escherichia coli [3]): 8 µg/mL
